{"source": "patent US6133233A", "about": "“Peptide modulation of reperfusion injury” (Kansas State University Research Foundation, priority 1998, dated 2000)", "key": {"neutrophil chemotaxis": {"tested_on": "neutrophil chemotaxis", "assay": "Neutrophil microchemotaxis assay", "assay_type": "cell-based", "details": "rat neutrophils; PR-39 10 μM", "description": "A microchemotaxis assay was used to examine the effect of PR-39 (SEQ ID No. 1) and another basic, PXXP-containing antimicrobial peptide, Bac5 (SEQ ID No. 7), on neutrophil chemotaxis alone and in combination. Whole blood was obtained from 250-350 g Sprague-Dawley rats by terminal cardiac puncture into acid citrate dextrose solution. Neutrophils were isolated by dextran sedimentation, followed by density-gradient centrifugation and hypotonic lysis to remove contaminating erythrocytes. Micropore filters (5 μM-pore polycarbonate membrane) were used to separate the lower and upper chambers of the microchemotaxis chamber. Attractants to be tested were diluted in RPMI medium and added (35 μl) to the lower wells of the chamber; 50 μl of the cell suspension ([…]) was added to the upper chamber. Chambers were placed in a humidified atmosphere of 5% CO2 in air at 37° C. for 40 min. Cells on the underside of the filters were fixed, stained, and counted using high-power brightfield microscopy. For each sample, four test wells containing chemoattractant were used. The total number of neutrophils in five fields was counted for each well. All results are expressed as a chemotaxis index defined as […]."}, "[1]": {"tested_on": "leukocyte emigration through venular endothelium", "assay": "Leukocyte emigration through venular endothelium after ischemia-reperfusion", "assay_type": "in vivo, rat", "details": "rats, pretreatment with about 5 μM", "experimental": "(§1) In this example, the efficiency of PR-39 (SEQ ID NO: 1) was tested in an in vivo model of reperfusion. Measurements of reactive oxygen release, neutrophil adherence to postcapillary venules and neutrophil emigration through venular endothelium, and vascular leakage were made in the presence and absence of PR-39 (SEQ ID No. 1).\n(§2) In this example, male Sprague-Dawley rats weighing 220-250 g each were used. The rats were anesthetized by intraperitoneal injection of pentobarbital (30-40 mg/kg rat body weight) and the jugular vein of each rat was cannulated for reagent injection. […] The images were captured with a charge-coupled device camera (Model C2400-60, Hamamatsu Photonics) which was mounted on the microscope, projected onto a television monitor (Model PVM-2030, Sony) and recorded using a videocassette recorder (Model HS-U65, Mitsubishi). […]\n(§3) Single, unbranched venules with diameters between 25-35 μm and lengths longer than 150 μm (both measured with a video caliper, Microcirculation Research Institute, Texas A&M University) were selected for the studies. […]\n(§4) The number of adherent and transmigrating leukocytes was determined off-line using videotaped images. […] Adherent leukocytes were expressed as the number per 100 μm length of venule. The number of emigrating leukocytes were also determined off-line and were expressed as the number per microscopic field."}, "[2]": {"tested_on": "bovine pulmonary artery endothelial (BPAE) cells", "assay": "Superoxide production in high K+ treated BPAE cells (dichlorodihydrofluorescein)", "assay_type": "cell-based", "details": "10 μM, 30 min", "experimental": "PR-39 (SEQ ID No. 1) was also tested in a cell other than neutrophils, namely bovine pulmonary artery endothelial (BPAE) cells. In these cells, membrane depolarization induced by high K^+ treatment results in the production of superoxide anion by an endothelial NADPH oxidase enzyme that may be similar to the oxidase found in neutrophils. In these experiments, cultured BPAE cells were loaded with an oxidation-sensitive dye, dichlorodihydrofluorescein, then treated with high K^+, plus or minus PR-39 (SEQ ID No. 1) or PR-26 (SEQ ID No. 2), for 30 min. Cells were then scraped, pelleted, washed, and sonicated. Fluorescence of the supernatant was then measured to assess superoxide production."}, "reactive oxygen species": {"tested_on": "reactive oxygen species", "assay": "Reactive oxygen (oxidant) production after mesenteric ischemia-reperfusion, dihydrorhodamine 123 intravital fluorescence", "assay_type": "in vivo, rat", "details": "rats", "experimental": "as §1\nas §2, with “injection. The carotid artery of each rat was also cannulated for measurements of mean arterial blood pressure using a pressure transducer (Model P23a, Statham) and physiological recorder (Grass Instruments).” for “injection.”\nas §3\nIn more detail, generation of reactive oxygen levels were measured by the dihydrorhodamine 123 dye. […]"}, "[3]": {"tested_on": "leukocyte adherence to mesenteric venular endothelium", "assay": "Leukocyte adherence to mesenteric venular endothelium after ischemia-reperfusion", "assay_type": "in vivo, rat", "details": "rats, pretreatment with about 5 μM", "experimental": "as §1, §2, §3, §4"}, "[4]": {"tested_on": "neutrophil oxidase activity", "assay": "Superoxide anion production in whole neutrophils (SOD-inhibitable ferricytochrome c reduction, PMA)", "assay_type": "cell-based", "details": "concentrations 5-10 μM", "experimental": "(§5) In these experiments, superoxide anion production by neutrophils was determined by the superoxide dismutase-inhibitable reduction of ferricytochrome c.\n(§6) Four samples were prepared for each animal: (1) neutrophils (1×10^6 cells) in Hanks' balanced salt solution (HBSS; without phenol red) mixed with 100 μl (80 μM) of ferricytochrome c, 10 μl (0.1 μg) phorbol myristate acetate (PMA), and 100 μl (300 U) of superoxide dismutase (SOD); (2) cells treated with ferricytochrome c only; (3) cells treated with ferricytochrome c and PMA; and (4) cells treated with ferricytochrome c and SOD. The mixtures were incubated at 39° C. for 20 min. and then centrifuged at 4° C. (350×g) for 5 min. Cell-free supernatant (200 μl) was transferred to flat-bottom 96-well plates, and OD was read at 550 nm using HBSS as the blank. Production of superoxide anion was calculated using the following formula: OD of [(3+4)-(1+2)]×190.5=nm superoxide/1 ×10^6 cells/20 min."}, "venular protein leakage": {"tested_on": "venular protein leakage", "assay": "Albumin leakage through mesenteric venules (vascular integrity) after ischemia-reperfusion", "assay_type": "in vivo, rat", "details": "rats, PR-39 pretreatment", "experimental": "An assessment of vascular integrity was made by quantification of albumin leakage through mesenteric venules. Three groups of Sprague-Dawley rats (6 rats/group and respectively labeled control, I/R and I/R+PR-39) were obtained. […] The control group was subjected to a similar surgical preparation, but without occlusion of the mesenteric artery or PR-39 (SEQ ID No. 1) administration. Fifty mg/kg fluorescein isothiocyanate-labeled bovine albumin was administered IV to each of the rats of each group, 15 min. prior to release of occlusion of the rats of the I/R and I/R+PR-39 (SEQ ID No. 1) groups. Fluorescence intensities within three segments of the venule under study (Iv) and in three adjacent areas of interstitium (Ii) were detected using a SIT camera (Model C-2400-08; Hamamatsu Photonics). Measurements were made at the basal, 20-30 min., and 50-60 min. time points using a computer-assisted digital imaging processor (NIH Image 1.35 on a Macintosh computer). An index of albumin leakage was expressed as the ratio of Ii to Iv at each time."}, "intact human neutrophils": {"tested_on": "intact human neutrophils", "assay": "Superoxide anion generation in intact human neutrophils", "assay_type": "cell-based", "experimental": "as §5, §6"}, "[5]": {"tested_on": "leukocyte adherence and extravasation", "details": "cited from earlier work"}, "[6]": {"details": "2 μM adenosine, cat mesenteric model"}}, "data": [{"molecule": "PR-39: proline/arginine-rich peptide of 39 residues (29/39 proline and arginine), most preferred peptide (RRRPRPPYLPRPRPPPFFPPRLPPRIPPGFPPRFPPRFP)", "values": [{"measurement": "Neutrophil chemotaxis, examined alone", "setting": "neutrophil chemotaxis", "value": "chemotactic for neutrophils"}, {"measurement": "Basal neutrophil emigration", "setting": "[1]; basal", "value": "appeared to be diminished"}, {"measurement": "Transvascular neutrophil emigration", "setting": "[1]; both post-release time points", "value": "no migrating neutrophils observed"}, {"measurement": "Oxidase activity (superoxide production) in pulmonary endothelium", "setting": "[2]", "value": "decrease oxidase activity"}, {"measurement": "Oxidant release (reactive oxygen production)", "setting": "reactive oxygen species; PR-39 pretreatment, comparison with adenosine", "value": "complete prevention of oxidant release"}, {"measurement": "Oxidant production", "setting": "reactive oxygen species; about 5 μM PR-39 pre-ischemia, 20 min ischemia, 30 minutes after resumption of mesenteric venular circulation", "value": "significantly inhibited"}, {"measurement": "Neutrophil adhesion to venular endothelium", "setting": "[3]", "value": "no apparent endothelium neutrophil interaction in excess of basal levels"}, {"measurement": "Inhibition of neutrophil oxidase activity (superoxide anion generation in intact neutrophils)", "setting": "[4]", "value": "inhibition of superoxide anion generation"}, {"measurement": "Vascular integrity (albumin leakage index Ii/Iv)", "setting": "venular protein leakage", "value": "prevented loss of vascular integrity"}]}, {"molecule": "C7: non-naturally occurring, cationic, PXXP-containing peptide (RRGPRHPQTRLPRPLPDP)", "values": [{"measurement": "Inhibition of superoxide anion generation in intact human neutrophils", "setting": "intact human neutrophils", "value": "inhibition of superoxide anion generation"}]}, {"molecule": "platelet activating factor [PAF, reference compound]", "values": [{"measurement": "Neutrophil chemotaxis, examined alone", "setting": "neutrophil chemotaxis", "value": "chemotactic for neutrophils"}]}, {"molecule": "Nc1ncnc2c1ncn2[C@@H]1O[C@H](CO)[C@@H](O)[C@H]1O", "note": "[adenosine]", "values": [{"measurement": "Reduction of reperfusion injury-induced adhesion of neutrophils", "setting": "[5]; [6]", "value": 65, "unit": "%"}, {"measurement": "Reduction of reperfusion injury-induced extravasation of neutrophils", "setting": "[5]; [6]", "value": 32, "unit": "%"}, {"measurement": "Reduction of oxidant release", "setting": "[5]; adenosine treatment, literature", "value": 20, "unit": "%"}]}, {"molecule": "Bac7: cationic, proline-rich, PXXP-containing peptide (RRIRPRPPRLPRPRPRPLYC)", "values": [{"measurement": "Inhibition of neutrophil oxidase activity (superoxide anion generation in intact neutrophils)", "setting": "[4]", "value": "inhibition of superoxide anion generation"}]}, {"molecule": "Bac5: basic, PXXP-containing antimicrobial peptide (RFRPPIRRPPIRPPFYPPFRPPIRPPIFPPIRPPFRPPLGPFP)", "values": [{"measurement": "Inhibition of neutrophil oxidase activity (superoxide anion generation in intact neutrophils)", "setting": "[4]", "value": "inhibition of superoxide anion generation"}]}]}
